In patent publication US9914732B2, “Diazabicyclo[4.3.1]decane derivatives for treatment of psychiatric disorders” (Max-Planck-Gesellschaft zur Forderung der Wissenschaften …, priority 2014, dated 2018):

Tests used:
[1] = molecular target: T1, FKBP51 (Homo sapiens, UniProt Q13451); test: Fluorescence polarization (FP) assay, binding to the FK506-binding domain of FKBP51; conditions: FK506-binding domain of FKBP51 (FKBP51FK1), competition with fluorescent ligand 2b
T1 sequence (Q13451 42-130 limits assumed): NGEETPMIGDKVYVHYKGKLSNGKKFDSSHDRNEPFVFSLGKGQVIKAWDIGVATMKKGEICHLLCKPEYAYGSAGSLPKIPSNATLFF
Procedure: (§1) In the present invention, in vitro fluorescence polarization assays with the compounds of the general formula (I) were performed to determine the binding affinities to FKBP51 and FKBP52 or to the isolated FK506-binding domains of FKBP51 and FKBP52 ([…]). Binding to the isolated FK506-binding domains is reliably indicative of binding to the full length proteins. The affinities for the isolated FK506-binding domains and for full-length FKBP51 or FKBP52 are the same for all compounds tested so far (Kozany et al, ChemBioChem 2009, 10, 1402-1410).
(§2) Example 11: Fluorescence Polarization (FP) Assays
(§3) In-vitro fluorescence polarization assays were performed to determine the binding affinities for FKBP51 and 52 according to a literature procedure (Kozany, C.; Marz, A.; Kress, C.; Hausch, F., Fluorescent probes to characterise FK506-binding proteins. Chembiochem 2009, 10, (8), 1402-10).
(§4) For fluorescence polarization assays the fluorescent ligand 2b was dissolved in HEPES (20 mm, pH 8), Triton-X100 (0.01%), at double the concentration required for the final sample. The target protein was also diluted in this assay buffer at double the highest concentration required for the final sample. This protein stock was used for a 1:1 serial dilution.
(§5) The fluorescent ligand 2b was diluted in assay buffer to a concentration double the final concentration (20 nM 2b). The inventive compound was dissolved in DMSO to reach a 100-times concentrated stock solution. This was used for a 1:1 serial dilution in DMSO. Every sample of this serial dilution was diluted by a factor of 50 in assay buffer supplemented with ligand 2b to achieve a 2× concentrated mixture of ligand 2b and the inventive compound. To this competitive ligand double the protein concentration for 2b assay: FKBP51FK1 560 nM (2×280 nM) or FKBP52FK1 800 nM (2×400 nM) diluted in assay buffer was added.
(§6) The samples were transferred to black 384-well assay plates (No.: 3575; Corning Life Sciences). After incubation at room temperature for 30 min the fluorescence anisotropy was measured (GENios Pro, Tecan, Männedorf, Switzerland) by using an excitation filters of 485/20 nm and emission filters of 535/25 nm. The binding assays were performed in duplicates in the plate format.
(§7) The competition curves were analyzed by using SigmaPlot9. Data were fitted to a four parameter logistic curve to deduce the IC50 values. For the analysis of K1 values, data were fitted to the following equation (Z. X. Wang, FEBS Lett. 1995, 360, 111-114). A=(Amax−Amin)/[L]t×(([L]t×((2×((Klig+Kcomp+[L]t+[I]t−[R]t)^2−3×(Kcomp×([L]t−[R]t)+Klig×([I]t−[R]t)+[…]))^0.5×COS(ARCCOS((−2×(Klig+Kcomp+[L]t+[I]t−[R]t)^3+9×(Klig+Kcomp+[L]t+[I]t−[R]t)×(Kcomp×([L]t−[R]t)+Klig×([I]t−[R]t)+Klig×Kcomp)−27×(−1×Klig×Kcomp×[R]t))/(2×((((Klig+Kcomp+[L]t+[I]t−[R]t)^2−3×(Kcomp×([L]t−[R]t)+Klig×([I]t−[R]t)+Klig×Kcomp))^3)^0.5)))/3))−(Klig+Kcomp+[L]t+[I]t−[R]t)))/((3×Klig)+((2×((Klig+Kcomp+[L]t+[I]t−[R]t)^2−3×(Kcomp×([L]t−[R]t)+Klig×([I]t−[R]t)+Klig×Kcomp))^0.5×COS(ARCCOS((−2×(Klig+Kcomp+[L]t+[I]t−[R]t)^3+9×(Klig+Kcomp+[L]t+[I]t−[R]t)×(Kcomp×([L]t−[R]t)+Klig×([I]t−[R]t)+Klig×Kcomp)−27×(−1×Klig×Kcomp×[R]t))/(2×((((Klig+Kcomp+[L]t+[I]t−[R]t)^2−3×(Kcomp×([L]t−[R]t)+Klig×([I]t−[R]t)+Klig×Kcomp))^3)^0.5)))/3))−(Klig+Kcomp+[L]t+[I]t−[R]t)))+Amin
(§8) In this equation Klig and Kcomp stand for the Kd values of the used tracer or competing inhibitor, [I]t is referring to the total concentration of the titrated inhibitor.

[2] = molecular target: T2, FKBP52 (Homo sapiens, UniProt Q02790); test: Fluorescence polarization (FP) assay, binding to the FK506-binding domain of FKBP52; conditions: FK506-binding domain of FKBP52 (FKBP52FK1), competition with fluorescent ligand 2b
T2 sequence (Q02790 50-138 limits assumed): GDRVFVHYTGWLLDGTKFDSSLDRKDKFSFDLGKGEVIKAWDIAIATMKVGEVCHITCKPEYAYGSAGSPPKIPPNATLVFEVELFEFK
Procedure: as §1, §2, §3, §4, §5, §6, §7, §8

Compound	Ki [1]	Ki [2]
COCCN1C[C@H](C(C)O)C2CCCC(C1=O)N2S(=O)(=O)c1cc(Cl)cc(Cl)c1 (stereo in doubt) [Compound B6, (1S,5S,6R)-10-((3,5-dichlorophenyl)sulfonyl)-5-((R)-1-hydroxyethyl)-3-(2-methoxyethyl)-3,10-diazabicyclo[4.3.1]decan-2-one]	≤ 100 nM	≤ 100 nM
COc1ccc(OCCN2CCC3CCCC(C2=O)N3S(=O)(=O)c2cc(Cl)c(O)c(Cl)c2)cc1OC (stereo not shown) [Ref. 3, reference compound]	1000 to 5000 nM	1000 to 5000 nM
C=CC1CN(Cc2ccccn2)C(=O)C2CCCC1N2S(=O)(=O)c1ccc2ncsc2c1 (stereo in doubt) [Compound K9, (1S,5R,6R)-10-(benzo[d]thiazol-6-ylsulfonyl)-3-(pyridin-2-ylmethyl)-5-vinyl-3,10-diazabicyclo[4.3.1]decan-2-one]	100 to 500 nM	100 to 500 nM
C=CC1CN(Cc2ccccn2)C(=O)C2CCCC1N2S(=O)(=O)c1ccc(NC(C)=O)c(Cl)c1 (stereo in doubt) [Compound K21, N-(2-chloro-4-(((1S,5R,6R)-2-oxo-3-(pyridin-2-ylmethyl)-5-vinyl-3,10-diazabicyclo[4.3.1]decan-10-yl)sulfonyl)phenyl)acetamide]	100 to 500 nM	100 to 500 nM
C=CC1CN(CC(=O)O)C(=O)C2CCCC1N2S(=O)(=O)c1cc(Cl)cc(Cl)c1 (stereo in doubt) [Compound J10, 2-((1S,5R,6R)-10-((3,5-dichlorophenyl)sulfonyl)-2-oxo-5-vinyl-3,10-diazabicyclo[4.3.1]decan-3-yl)acetic acid]	100 to 500 nM	100 to 500 nM
COc1ccc(OCCN2C[C@H](C[C@H](C)O)C3CCCC(C2=O)N3S(=O)(=O)c2cc(Cl)cc(Cl)c2)cc1OC (single isomer, unassigned) [Compound D5]	≤ 100 nM	≤ 100 nM
C#CCN1C[C@H](COC)[C@H]2CCC[C@@H](C1=O)N2S(=O)(=O)c1cc(Cl)cc(C(N)=O)c1 [Compound N6, 3-chloro-5-(((1S,5S,6R)-5-(methoxymethyl)-2-oxo-3-(prop-2-yn-1-yl)-3,10-diazabicyclo[4.3.1]decan-10-yl)sulfonyl)benzamide]	100 to 500 nM	100 to 500 nM
COc1ccc(OCCN2C[C@H](O)[C@H]3CCC[C@@H](C2=O)N3S(=O)(=O)c2cc(Cl)cc(Cl)c2)cc1OC [Compound H2.3, (1S,5S,6R)-10-((3,5-dichlorophenyl)sulfonyl)-3-(2-(3,4-dimethoxyphenoxy)ethyl)-5-hydroxy-3,10-diazabicyclo[4.3.1]decan-2-one]	≤ 100 nM	100 to 500 nM
C=CC1CN(Cc2ccccn2)C(=O)C2CCCC1N2S(=O)(=O)c1ccc(NC(C)=O)c(Br)c1 (stereo in doubt) [Compound K20, N-(2-bromo-4-(((1S,5R,6R)-2-oxo-3-(pyridin-2-ylmethyl)-5-vinyl-3,10-diazabicyclo[4.3.1]decan-10-yl)sulfonyl)phenyl)acetamide]	100 to 500 nM	100 to 500 nM
C#CCN1C[C@H](COC)[C@H]2CCC[C@@H](C1=O)N2S(=O)(=O)c1nc2ccccc2[nH]1 [Compound N16, (1S,5S,6R)-10-((1H-benzo[d]imidazol-2-yl)sulfonyl)-5-(methoxymethyl)-3-(prop-2-yn-1-yl)-3,10-diazabicyclo[4.3.1]decan-2-one]	100 to 500 nM	100 to 500 nM
COc1ccc(OCCN2CCC3CCCC(C2=O)N3S(=O)(=O)c2ccc3ncsc3c2)cc1OC (stereo not shown) [Ref. 2, reference compound]	1000 to 5000 nM	1000 to 5000 nM
CCOC[C@H]1CN(Cc2ccccn2)C(=O)[C@@H]2CCC[C@H]1N2S(=O)(=O)c1cc(Cl)cc(Cl)c1 [Compound M6, (1S,5S,6R)-10-((3,5-dichlorophenyl)sulfonyl)-5-(ethoxymethyl)-3-(pyridin-2-ylmethyl)-3,10-diazabicyclo[4.3.1]decan-2-one]	≤ 100 nM	≤ 100 nM
COC[C@H]1CN(Cc2cnnn2S(=O)(=O)c2ccccc2)C(=O)[C@@H]2CCC[C@H]1N2S(=O)(=O)c1cccc(F)c1 [Compound N32, (1S,5S,6R)-10-((3-fluorophenyl)sulfonyl)-5-(methoxymethyl)-3-((1-(phenylsulfonyl)-1H-1,2,3-triazol-5-yl)methyl)-3,10-diazabicyclo[4.3.1]decan-2-one]	100 to 500 nM	100 to 500 nM
C#CCN1C[C@H](COC)[C@H]2CCC[C@@H](C1=O)N2S(=O)(=O)c1cc(Br)cc(C(=O)OC)c1 [Compound N11, methyl 3-bromo-5-(((1S,5S,6R)-5-(methoxymethyl)-2-oxo-3-(prop-2-yn-1-yl)-3,10-diazabicyclo[4.3.1]decan-10-yl)sulfonyl)benzoate]	100 to 500 nM	100 to 500 nM
C=CC1CN(Cc2ccccn2)C(=O)C2CCCC1N2S(=O)(=O)c1cccc(C(N)=O)c1 (stereo in doubt) [Compound K17, 3-(((1S,5R,6R)-2-oxo-3-(pyridin-2-ylmethyl)-5-vinyl-3,10-diazabicyclo[4.3.1]decan-10-yl)sulfonyl)benzamide]	100 to 500 nM	100 to 500 nM
C=CC1CN(Cc2ccccn2)C(=O)C2CCCC1N2S(=O)(=O)c1ccc2nc(C)sc2c1 (stereo in doubt) [Compound K6, (1S,5R,6R)-10-((2-methylbenzo[d]thiazol-6-yl)sulfonyl)-3-(pyridin-2-ylmethyl)-5-vinyl-3,10-diazabicyclo[4.3.1]decan-2-one]	≤ 100 nM	≤ 100 nM
COC[C@H]1CN(Cc2cnn[nH]2)C(=O)[C@@H]2CCC[C@H]1N2S(=O)(=O)c1nc2ccccc2[nH]1 [Compound N28, (1S,5S,6R)-3-((1H-1,2,3-triazol-5-yl)methyl)-10-((1H-benzo[d]imidazol-2-yl)sulfonyl)-5-(methoxymethyl)-3,10-diazabicyclo[4.3.1]decan-2-one]	≤ 100 nM	≤ 100 nM
C=CC1CN(CCCOCc2ccccc2)C(=O)C2CCCC1N2S(=O)(=O)c1cc(Cl)cc(Cl)c1 (stereo in doubt) [Compound J1, (1S,5R,6R)-3-(3-(benzyloxy)propyl)-10-((3,5-dichlorophenyl)sulfonyl)-5-vinyl-3,10-diazabicyclo[4.3.1]decan-2-one]	100 to 500 nM	100 to 500 nM
COCCCCN1C[C@@H](CO)[C@H]2CCC[C@@H](C1=O)N2S(=O)(=O)c1cc(Cl)cc(Cl)c1 [Compound J7, (1S,5R,6R)-10-((3,5-dichlorophenyl)sulfonyl)-5-(hydroxymethyl)-3-(4-methoxybutyl)-3,10-diazabicyclo[4.3.1]decan-2-one]	500 to 1000 nM	500 to 1000 nM
CC[C@H]1CN(CCOC)C(=O)[C@@H]2CCC[C@H]1N2S(=O)(=O)c1cc(Cl)cc(Cl)c1 [Compound B15, (1S,5S,6R)-10-((3,5-dichlorophenyl)sulfonyl)-5-ethyl-3-(2-methoxyethyl)-3,10-diazabicyclo[4.3.1]decan-2-one]	≤ 100 nM	≤ 100 nM
